In paper PMC7074166, “Screening for Small Molecule Modulators of Trypanosoma brucei Hsp70 Chaperone Activity Based upon Alcyonarian Coral-Derived Natural Products” (Marine Drugs, 2020):
Like-named read-outs stand apart in the source and are kept apart here.

Tested on: bloodstream form T. b. brucei parasites
Test: Resazurin-based anti-trypanosomal assay on bloodstream form T. b. brucei parasites
Type: cell-based, Trypanosoma brucei brucei
Method: Bloodstream form T. b. brucei Lister 927 variant 221 strain parasites were cultured in filter sterilized complete Iscoves Modified Dulbeccos Media (IMDM) based HM1-9 medium (IMDM base powder, […] sodium bicarbonate, 1 mM hypoxanthine, 1 mM sodium pyruvate, 0.16 mM thymidine, 0.05 mM bathocuprone sulphate acid, 10% (v/v) heat inactivated foetal bovine serum, 1.5 mM L-cysteine, 0.2 mM β-mercaptoethanol, pH 7.5) in a humidified chamber at 37 °C with an atmosphere of 5% CO2. Parasite growth was monitored using a Neubauer haemocytometer to count the cell number, after which cells were diluted, according to their density, in the described pre-warmed media.
All compounds of interest were resuspended to stocks of 30 mM in DMSO and stored at −80 °C prior to use in in vitro experiments. For assessment of anti-trypanosomal activity, compounds were added to in vitro cultures of bloodstream form T. b. brucei parasites (1 × 10^5 cells/mL) in 96-well plates at a fixed concentration of 20 μM. After an incubation period of 48 h, the number of parasites surviving drug exposure were determined using a resazurin-based cytotoxicity assay. Resazurin is an oxidation–reduction sensitive dye that is reduced by living cells to resorufin. Resorufin is a fluorophore (Excitation560/Emission590) and thus was quantified in a multi-well fluorescence plate reader. Results are expressed as % parasite viability—the resorufin fluorescence in small molecule-treated wells relative to untreated controls. Assessment of each small molecule was conducted in duplicate, with error bars representing standard deviation (SD). […] The compounds were added to in vitro cultures of bloodstream form T. b. brucei parasites (1 × 10^5 cells/mL) in 96-well plates in a 3-fold dilution series with 100 μM as the highest concentration. After an incubation period of 48 h, the number of parasites surviving drug exposure were determined as previously mentioned. The % parasite viability was determined as previously mentioned. The IC50 (the concentration of compound required to decrease cell viability of T. b. brucei parasites by 50% compared to those grown in the absence of the compound) values for each of the compounds were determined from a dose–response curve by non-linear regression generated using GraphPad Prism® (v. 7.0; San Diego, CA, USA) software. For comparative purposes, pentamidine at a fixed concentration of 1 μM was employed as a drug standard.

[1] = Trypanosoma brucei, Table 1, T. b. brucei parasites cultured in vitro, 48 h, dose-response, read-out: IC50/μM
[2] = Trypanosoma brucei, Table S1, 48 select compounds, T. b. brucei, 48 h, read-out: IC50/

Molecule | IC50 [1] | IC50 [2] | further results
CC(C)=CCC/C(C)=C/CCC(C)=CCn1ccnc1 [Compound 71, 1-((6E)-3,7,11-Trimethyldodeca-2,6,10-trien-1-yl)-1H-imidazole] | 26.8 µM | 26.8 µM | 
CC(C)=CCC/C(C)=C/Cn1cnc2c(Cl)ncnc21 [Compound 15, (E)-6-Chloro-9-(3,7-dimethylocta-2,6-dien-1-yl)-9H-purine] | 12.2 µM | 12.2 µM | 
CC(C)=CCC/C(C)=C/CC/C(C)=C/CC/C(C)=C/Cn1cnc2c1c(=O)[nH]c(=O)n2C [Compound 33, 3-methyl-7-((2E,6E,10E)-3,7,11,15-tetramethylhexadeca-2,6,10,14-tetraen-1-yl)-3,7-dihydro-1H-purine-2,6-dione] | 10.2 µM | 10.2 µM | 
CC(C)=CCC/C(C)=C/CC/C(C)=C/Cn1cnc2nncc-2c1O [Compound 49, 5-((2E,6E)-3,7,11-trimethyldodeca-2,6,10-trien-1-yl)-5H-pyrazolo[3,4-d]pyrimidin-4-ol] | 16.7 µM | 16.7 µM | 
CC(C)=CCC/C(C)=C/CC/C(C)=C/CC/C(C)=C/Cn1cc(C)c(=O)[nH]c1=O [Compound 59, 5-Methyl-1-((2E,6E,10E)-3,7,11,15-tetramethylhexadeca-2,6,10,14-tetraen-1-yl)pyrimidine-2,4(1H,3H)-dione] | 15.8 µM |  | 
6-chloro-7-((2E,6E)-3,7,11-trimethyldodeca-2,6,10-trien-1-yl)-9H-purine [Compound 18] |  |  | IC50 (Table 1, T. b. brucei parasites cultured in vitro, 48 h, dose-response, read-out: IC50/μM): 9.3 µM; IC50 (Table S1, 48 select compounds, T. b. brucei, 48 h, read-out: IC50/): 9.28 µM
CC(C)=CCC/C(C)=C/CCC(C)=CCNC=O [Compound 75, N-((6E)-3,7,11-trimethyldodeca-2,6,10-trien-1-yl)formamide] |  |  | anti-trypanosomal activity (SAR statement) (T. b. brucei, screen at 20 μM): inactive
CC(=O)NC/C=C(\C)CC/C=C(\C)CCC=C(C)C [Compound 83, N-((2E,6E)-3,7,11-trimethyldodeca-2,6,10-trien-1-yl)acetamide] | 21.5 µM | 21.5 µM | 
CC(C)=CCC/C(C)=C/CC/C(C)=C/CC/C(C)=C/Cn1cnc2c(Cl)ncnc21 [Compound 19, 6-Chloro-9-((2E,6E,10E)-3,7,11,15-tetramethylhexadeca-2,6,10,14-tetraen-1-yl)-9H-purine] | 6.8 µM | 6.79 µM | 
CC(C)=CCC/C(C)=C/CC/C(C)=C/CC/C(C)=C/Cn1cnc2c1c(=O)n(C)c(=O)n2C [Compound 37, 1,3-dimethyl-7-((2E,6E,10E)-3,7,11,15-tetramethylhexadeca-2,6,10,14-tetraen-1-yl)-3,7-dihydro-1H-purine-2,6-dione] | 21.6 µM |  | 
N=C(N)c1ccc(OCCCCCOc2ccc(C(=N)N)cc2)cc1 [pentamidine, reference compound] |  |  | IC50 (Trypanosoma brucei, T. b. brucei parasites cultured in vitro, positive control, read-out: IC50 of drug standard): 0.0053 µM
CC(C)=CCC/C(C)=C/CCC(C)=CCn1cc2c(=O)ncn(CC=C(C)CC/C=C(\C)CCC=C(C)C)c2n1 [Compound 48, 2,7-bis((6E)-3,7,11-trimethyldodeca-2,6,10-trien-1-yl)-2,7-dihydro-4H-pyrazolo[3,4-d]pyrimidin-4-one] | 5.5 µM | 5.47 µM | IC50 (Trypanosoma brucei, T. b. brucei parasites, stated as bound, read-out: IC50 values): < 7 µM
CC(C)=CCC/C(C)=C/CCC(C)=CCN1C(=O)c2ccccc2C1=O [Compound 68, 2-((6E)-3,7,11-Trimethyldodeca-2,6,10-trien-1-yl)isoindoline-1,3-dione] | 32.2 µM | 32.2 µM | 
CC(C)=CCC/C(C)=C/CC/C(C)=C/CC/C(C)=C/CN(C)C=O [Compound 80, N-Methyl-N-((2E,6E,10E)-3,7,11,15-tetramethylhexadeca-2,6,10,14-tetraen-1-yl)formamide] | 41.2 µM | 41.2 µM | 
CC(C)=CCC/C(C)=C/CC/C(C)=C\CNC=O [Compound 74, N-((2Z,6E)-3,7,11-Trimethyldodeca-2,6,10-trien-1-yl)formamide] | 27.3 µM | 27.3 µM | 
CC(C)=CCC/C(C)=C/CC/C(C)=C/CC/C(C)=C\Cn1cnc2c1c(=O)[nH]c(=O)n2C [Compound 32, 3-Methyl-7-((2Z,6E,10E)-3,7,11,15-tetramethylhexadeca-2,6,10,14-tetraen-1-yl)-3,7-dihydro-1H-purine-2,6-dione] | 5.9 µM |  | 

Molecule | IC50 [1] | IC50 [2] | further results
CC(C)=CCC/C(C)=C/CCC(C)=CCn1cnc(N(C)C)c2ncnc1-2 [Compound 12, N,N-dimethyl-3-((6E)-3,7,11-trimethyldodeca-2,6,10-trien-1-yl)-3H-purin-6-amine] | 14 µM |  | 
CC(C)=CCC/C(C)=C/CC/C(C)=C/CC/C(C)=C/Cn1cnc2ncnc(Cl)c21 [Compound 20, 6-chloro-7-((2E,6E,10E)-3,7,11,15-tetramethylhexadeca-2,6,10,14-tetraen-1-yl)-7H-purine] | 11 µM | 11 µM | 
CC(C)=CCC/C(C)=C/CCC(C)=CCn1cnc2c(Cl)ncnc21 [Compound 17, 6-Chloro-9-((6E)-3,7,11-trimethyldodeca-2,6,10-trien-1-yl)-9H-purine] | 12.9 µM | 12.9 µM | 
CC(C)=CCC/C(C)=C/CC/C(C)=C/CC/C(C)=C/Cn1cnc2c(cnn2C/C=C(\C)CC/C=C(\C)CC/C=C(\C)CCC=C(C)C)c1=O [Compound 50, 1,5-Bis((2E,6E,10E)-3,7,11,15-tetramethylhexadeca-2,6,10,14-tetraen-1-yl)-1,5-dihydro-4H-pyrazolo[3,4-d]pyrimidin-4-one] | 2.1 µM | 2.07 µM | 
CC(C)=CCC/C(C)=C/CC/C(C)=C/CC/C(C)=C/CNC=O [Compound 77, N-((2E,6E,10E)-3,7,11,15-tetramethylhexadeca-2,6,10,14-tetraen-1-yl)formamide] | 41.8 µM | 41.8 µM | 
CC(=O)NC/C=C(\C)CC/C=C(\C)CC/C=C(\C)CCC=C(C)C [Compound 85, N-((2E,6E,10E)-3,7,11,15-tetramethylhexadeca-2,6,10,14-tetraen-1-yl)acetamide] | 3.1 µM | 3.14 µM | 
CC(C)=CCC/C(C)=C/CC12NC(=O)N=C1N(C)C(=O)N(C)C2=O (stereo not drawn) [Compound 42, (E)-5-(3,7-Dimethylocta-2,6-dien-1-yl)-1,3-dimethyl-5,7-dihydro-1H-purine-2,6,8(3H)-trione] | 10.9 µM | 10.9 µM | 
CC(C)=CCC/C(C)=C/CC/C(C)=C/CC/C(C)=C/CN1C(=O)c2ccccc2C1=O [Compound 69, 2-((2E,6E,10E)-3,7,11,15-Tetramethylhexadeca-2,6,10,14-tetraen-1-yl)isoindoline-1,3-dione] | 9.2 µM | 9.16 µM | 
CC(C)=CCC/C(C)=C/CC/C(C)=C/CC/C(C)=C\Cn1cnc2c(N(C)C)ncnc21 [Compound 13, N,N-Dimethyl-9-((2Z,6E,10E)-3,7,11,15-tetramethylhexadeca-2,6,10,14-tetraen-1-yl)-9H-purin-6-amine] | 8.7 µM | 8.69 µM | 
CC(C)=CCC/C(C)=C/Cn1cnc2ncnc(Cl)c21 [Compound 16, (E)-6-chloro-7-(3,7-dimethylocta-2,6-dien-1-yl)-7H-purine] | 11 µM | 11 µM | 
CC(C)=CCC/C(C)=C/CCC(C)=CCn1c(=O)[nH]c2c(=O)n(C)c(=O)n(C)c21 [Compound 44, 1,3-dimethyl-9-((6E)-3,7,11-trimethyldodeca-2,6,10-trien-1-yl)-7,9-dihydro-1H-purine-2,6,8(3H)-trione] | 16.6 µM | 16.6 µM | 
CC(C)=CCC/C(C)=C/CCC(C)=CCn1cnc(N)c2ncnc1-2 [Compound 6, 3-((6E)-3,7,11-Trimethyldodeca-2,6,10-trien-1-yl)-3H-purin-6-amine] | 12.7 µM | 12.7 µM | 
CC(C)=CCC/C(C)=C/CC/C(C)=C/CC/C(C)=C/Cn1ccnc1 [Compound 72, 1-((2E,6E,10E)-3,7,11,15-Tetramethylhexadeca-2,6,10,14-tetraen-1-yl)-1H-imidazole] | 3.4 µM | 3.42 µM | 
CC(C)=CCC/C(C)=C/Cn1cnc2c1c(=O)[nH]c(=O)n2C [Compound 29, (E)-7-(3,7-Dimethylocta-2,6-dien-1-yl)-3-methyl-3,7-dihydro-1H-purine-2,6-dione] | 18.9 µM | 18.9 µM | 
CC(C)=CCC/C(C)=C/CCC(C)=CCn1cnc2c(N(C)C)ncnc21 [Compound 11, N,N-Dimethyl-9-((6E)-3,7,11-trimethyldodeca-2,6,10-trien-1-yl)-9H-purin-6-amine] | 9.5 µM | 9.48 µM | 
